Key:
Assay in all cases: relative viability (nuclei count vs DMSO), 5 days (fraction); higher = more cells survive
[1] = compound: COc1cc(Nc2ncc3c(n2)-c2ccc(Cl)cc2C(c2c(F)cccc2OC)=NC3)ccc1C(=O)O [Alisertib]
How it was run: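 Viability was defined as treated-well nuclei divided by vehicle-well nuclei, with the median taken over replicate plates. Cells from lung cancer lines sat overnight at 37 °C in 1536-well plates, received five √10-spaced library-drug doses by pinning on vehicle-anchored plates, and grew 5 days without medium change before one-step fixation, permeabilisation and Hoechst staining, 4× imaging and MetaXpress nuclear counts. Only plates with control CV under 25% and at least one doubling were kept.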

[2] = compound: COc1cc(Nc2ncc3c(n2)-c2ccc(Cl)cc2C(c2c(F)cccc2OC)=NC3)ccc1C(=O)O [Alisertib] + CC(=O)Nc1cccc(-n2c(=O)n(C3CC3)c(=O)c3c(Nc4ccc(I)cc4F)n(C)c(=O)c(C)c32)c1 [Trametinib] (partner 0.02 µM)
How it was run: (§1)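 Five library-drug doses in √10 steps were combined with a fixed anchor-drug dose, or a single drug was given alone, by pin tool to lung cancer cell lines in 1536-well plates the day after seeding. Nuclei were stained and counted after 5 days. Relative viability is the nuclei count in treated wells over that in vehicle wells, taken as the median of duplicate plates.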

[3] = compound: COc1cc(Nc2ncc3c(n2)-c2ccc(Cl)cc2C(c2c(F)cccc2OC)=NC3)ccc1C(=O)O [Alisertib] + Cc1cc(Nc2cc(N3CCN(C)CC3)nc(Sc3ccc(NC(=O)C4CC4)cc3)n2)n[nH]1 [Tozasertib] (partner 0.1 µM)
How it was run: as §1

[4] = compound: COc1cc(Nc2ncc3c(n2)-c2ccc(Cl)cc2C(c2c(F)cccc2OC)=NC3)ccc1C(=O)O [Alisertib] + NC(=O)Nc1cc(-c2cccc(F)c2)sc1C(=O)N[C@H]1CCCNC1 [AZD7762] (partner 0.2 µM)
How it was run: as §1

Row | Cell Line | relative viability ([1]; 0.005 µM) | relative viability ([1]; 0.01581 µM) | relative viability ([1]; 0.05 µM) | relative viability ([1]; 0.1581 µM) | relative viability ([1]; 0.5 µM) | relative viability ([2]; first compound 0.005 µM) | relative viability ([2]; first compound 0.01581 µM) | relative viability ([2]; first compound 0.05 µM) | relative viability ([2]; first compound 0.1581 µM) | relative viability ([2]; first compound 0.5 µM) | relative viability ([3]; first compound 0.005 µM) | relative viability ([3]; first compound 0.01581 µM) | relative viability ([3]; first compound 0.05 µM) | relative viability ([3]; first compound 0.1581 µM) | relative viability ([3]; first compound 0.5 µM) | relative viability ([4]; first compound 0.005 µM) | relative viability ([4]; first compound 0.01581 µM) | relative viability ([4]; first compound 0.05 µM) | relative viability ([4]; first compound 0.1581 µM) | relative viability ([4]; first compound 0.5 µM)
1 | HCC-15 | 0.862 | 0.723 | 0.513 | 0.138 | 0.138 | 0.356 | 0.286 | 0.175 | 0.122 | 0.113 | 0.352 | 0.154 | 0.163 | 0.144 | 0.0961 | 0.994 | 1.16 | 1.12 | 0.355 | 0.133
2 | NCI-H650 | 0.724 | 0.856 | 0.394 | 0.258 | 0.209 | 0.829 | 0.684 | 0.44 | 0.229 | 0.208 | 0.653 | 0.481 | 0.253 | 0.185 | 0.165 | 0.772 | 0.738 | 0.37 | 0.255 | 0.259
3 | NCI-H1651 | 0.859 | 0.892 | 0.571 | 0.298 | 0.209 | 0.799 | 0.654 | 0.52 | 0.258 | 0.154 | 0.492 | 0.617 | 0.273 | 0.269 | 0.205 | 0.456 | 0.455 | 0.385 | 0.199 | 0.129
4 | NCI-H1734 | 0.802 | 0.731 | 0.417 | 0.299 | 0.193 | 0.678 | 0.73 | 0.381 | 0.238 | 0.163 | 0.262 | 0.231 | 0.22 | 0.195 | 0.188 | 0.501 | 0.366 | 0.23 | 0.18 | 0.149
5 | NCI-H3122 | 0.943 | 0.977 | 0.831 | 0.405 | 0.295 | 0.238 | 0.214 | 0.198 | 0.176 | 0.131 | 0.384 | 0.315 | 0.235 | 0.27 | 0.191 | 0.973 | 0.78 | 0.776 | 0.259 | 0.203
6 | CAL-12T | 0.827 | 0.636 | 0.229 | 0.193 | 0.179 | 0.321 | 0.261 | 0.155 | 0.154 | 0.227 | 0.333 | 0.28 | 0.202 | 0.199 | 0.178 | 0.528 | 0.314 | 0.183 | 0.224 | 0.201
7 | HCC-78 | 0.858 | 0.642 | 0.303 | 0.284 | 0.328 | 0.67 | 0.646 | 0.263 | 0.236 | 0.259 | 0.446 | 0.273 | 0.281 | 0.245 | 0.211 | 0.544 | 0.569 | 0.363 | 0.23 | 0.28
8 | NCI-H2085 | 0.936 | 0.955 | 0.572 | 0.327 | 0.385 | 0.505 | 0.496 | 0.264 | 0.183 | 0.246 | 0.723 | 0.669 | 0.526 | 0.476 | 0.394 | 0.876 | 0.874 | 0.882 | 0.284 | 0.348
